The supplement of paper PMC6045584
± gives the standard deviation of the averaged measurements.

Key:
BI-2536 [1] = compound: T1, CC[C@@H]1C(=O)N(C)c2cnc(Nc3ccc(C(=O)NC4CCN(C)CC4)cc3OC)nc2N1C1CCCC1 [BI-2536]; assay: area under dose-response curve of surviving fraction (unscaled, Aref=0) (surviving fraction x log10(nM)); higher = more resistant; conditions: exposure time: 5 days; dose range 0.5-1000 nM
How it was run: (§1)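 Tumour cell lines in 384-well plates were exposed for five days to eight inhibitor concentrations from 0.5 to 1000 nM. Viability was read by CellTiter-Glo luminescence, normalised to DMSO-only wells, in three screens per line. Dose-response survival curves were fitted to surviving fractions by 3-parameter logistic regression in the drc R package. Area under the curve is the unscaled activity area (Aref = 0) over log10 dose.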

AFATINIB [2] = compound: T2, CN(C)C/C=C/C(=O)Nc1cc2c(Nc3ccc(F)c(Cl)c3)ncnc2cc1O[C@H]1CCOC1 [AFATINIB]; assay: as above; conditions: exposure time: 5 days; dose range 0.5-1000 nM
How it was run: as §1

MDV3100 [3] = compound: T3, CNC(=O)c1ccc(N2C(=S)N(c3ccc(C#N)c(C(F)(F)F)c3)C(=O)C2(C)C)cc1F [MDV3100]; assay: as above; conditions: exposure time: 5 days; dose range 0.5-1000 nM
How it was run: as §1

CANERTINIB [4] = compound: T4, C=CC(=O)Nc1cc2c(Nc3ccc(F)c(Cl)c3)ncnc2cc1OCCCN1CCOCC1 [CANERTINIB]; assay: as above; conditions: exposure time: 5 days; dose range 0.5-1000 nM
How it was run: as §1

TIOGUANINE [5] = compound: T5, Nc1nc2[nH]cnc2c(=S)[nH]1 [TIOGUANINE]; assay: as above; conditions: exposure time: 5 days; dose range 0.5-1000 nM
How it was run: as §1

SNX-5422 [6] = compound: T6, CC1(C)CC(=O)c2c(C(F)(F)F)nn(-c3ccc(C(N)=O)c(N[C@H]4CC[C@H](OC(=O)CN)CC4)c3)c2C1 [SNX-5422]; assay: as above; conditions: exposure time: 5 days; dose range 0.5-1000 nM
How it was run: as §1

[7] = compound: Cn1cc(C2=Nc3cc(NC(=O)C(N)C4CCCCC4)cc4c3C2=CNNC4=O)cn1; assay: as above; conditions: exposure time: 5 days; dose range 0.5-1000 nM
How it was run: as §1

SAPACITABINE [8] = compound: T7, CCCCCCCCCCCCCCCC(=O)Nc1ccn([C@@H]2O[C@H](CO)[C@@H](O)[C@@H]2C#N)c(=O)n1 [SAPACITABINE]; assay: as above; conditions: exposure time: 5 days; dose range 0.5-1000 nM
How it was run: as §1

BI-2536 [9] = compound: T1, BI-2536; assay: surviving fraction relative to DMSO-only wells; higher = less growth inhibition; conditions: exposure time: 5 days
How it was run: (§2)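 Surviving fraction was calculated by normalising CellTiter-Glo luminescence to the median of DMSO-only wells. Tumour cell lines in log phase were seeded in 384-well plates at 250–500 cells per well, and 24 hours later were exposed continuously for five days to inhibitors at 0.5, 1, 5, 10, 50, 100, 500 and 1000 nM.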

AFATINIB [10] = compound: T2, AFATINIB; assay: as above; conditions: exposure time: 5 days
How it was run: as §2

MDV3100 [11] = compound: T3, MDV3100; assay: as above; conditions: exposure time: 5 days
How it was run: as §2

CANERTINIB [12] = compound: T4, CANERTINIB; assay: as above; conditions: exposure time: 5 days
How it was run: as §2

TIOGUANINE [13] = compound: T5, TIOGUANINE; assay: as above; conditions: exposure time: 5 days
How it was run: as §2

SNX-5422 [14] = compound: T6, SNX-5422; assay: as above; conditions: exposure time: 5 days
How it was run: as §2

[15] = compound: Cn1cc(C2=Nc3cc(NC(=O)C(N)C4CCCCC4)cc4c3C2=CNNC4=O)cn1; assay: as above; conditions: exposure time: 5 days
How it was run: as §2

SAPACITABINE [16] = compound: T7, SAPACITABINE; assay: as above; conditions: exposure time: 5 days
How it was run: as §2

MDAMB231 BREAST
area under dose-response curve (BI-2536 [1]): 1.56 | area under dose-response curve (AFATINIB [2]): 3.07 | area under dose-response curve (MDV3100 [3]): 3.22 | area under dose-response curve (CANERTINIB [4]): 3.15 | area under dose-response curve (TIOGUANINE [5]): 3.15 | area under dose-response curve (SNX-5422 [6]): 2.3 | area under dose-response curve [7]: 2.84 | area under dose-response curve (SAPACITABINE [8]): 2.9 | surviving fraction (BI-2536 [9]; 0.5 nM): 0.975 ± 0.02 | surviving fraction (BI-2536 [9]; 1 nM): 0.954 ± 0.01 | surviving fraction (BI-2536 [9]; 5 nM): 0.425 ± 0.015 | surviving fraction (BI-2536 [9]; 10 nM): 0.385 ± 0.011 | surviving fraction (BI-2536 [9]; 50 nM): 0.39 ± 0.011 | surviving fraction (BI-2536 [9]; 100 nM): 0.391 ± 0.0073 | surviving fraction (BI-2536 [9]; 500 nM): 0.338 ± 0.013 | surviving fraction (BI-2536 [9]; 1000 nM): 0.245 ± 0.0063 | surviving fraction (AFATINIB [10]; 0.5 nM): 1.05 ± 0.026 | surviving fraction (AFATINIB [10]; 1 nM): 1.05 ± 0.028 | surviving fraction (AFATINIB [10]; 5 nM): 1.06 ± 0.037 | surviving fraction (AFATINIB [10]; 10 nM): 1.05 ± 0.027 | surviving fraction (AFATINIB [10]; 50 nM): 1.04 ± 0.03 | surviving fraction (AFATINIB [10]; 100 nM): 0.995 ± 0.025 | surviving fraction (AFATINIB [10]; 500 nM): 0.668 ± 0.013 | surviving fraction (AFATINIB [10]; 1000 nM): 0.335 ± 0.021 | surviving fraction (MDV3100 [11]; 0.5 nM): 0.961 ± 0.034 | surviving fraction (MDV3100 [11]; 1 nM): 0.954 ± 0.035 | surviving fraction (MDV3100 [11]; 5 nM): 0.978 ± 0.022 | surviving fraction (MDV3100 [11]; 10 nM): 0.969 ± 0.012 | surviving fraction (MDV3100 [11]; 50 nM): 0.988 ± 0.034 | surviving fraction (MDV3100 [11]; 100 nM): 0.997 ± 0.025 | surviving fraction (MDV3100 [11]; 500 nM): 0.96 ± 0.026 | surviving fraction (MDV3100 [11]; 1000 nM): 0.944 ± 0.014 | surviving fraction (CANERTINIB [12]; 0.5 nM): 0.93 ± 0.033 | surviving fraction (CANERTINIB [12]; 1 nM): 0.937 ± 0.027 | surviving fraction (CANERTINIB [12]; 5 nM): 0.956 ± 0.022 | surviving fraction (CANERTINIB [12]; 10 nM): 0.946 ± 0.031 | surviving fraction (CANERTINIB [12]; 50 nM): 0.986 ± 0.021 | surviving fraction (CANERTINIB [12]; 100 nM): 0.989 ± 0.029 | surviving fraction (CANERTINIB [12]; 500 nM): 0.874 ± 0.02 | surviving fraction (CANERTINIB [12]; 1000 nM): 0.746 ± 0.039 | surviving fraction (TIOGUANINE [13]; 0.5 nM): 0.988 ± 0.027 | surviving fraction (TIOGUANINE [13]; 1 nM): 0.994 ± 0.021 | surviving fraction (TIOGUANINE [13]; 5 nM): 1.01 ± 0.027 | surviving fraction (TIOGUANINE [13]; 10 nM): 0.994 ± 0.028 | surviving fraction (TIOGUANINE [13]; 50 nM): 1.01 ± 0.035 | surviving fraction (TIOGUANINE [13]; 100 nM): 1.01 ± 0.035 | surviving fraction (TIOGUANINE [13]; 500 nM): 0.74 ± 0.039 | surviving fraction (TIOGUANINE [13]; 1000 nM): 0.573 ± 0.016 | surviving fraction (SNX-5422 [14]; 0.5 nM): 0.971 ± 0.021 | surviving fraction (SNX-5422 [14]; 1 nM): 0.998 ± 0.034 | surviving fraction (SNX-5422 [14]; 5 nM): 1.01 ± 0.035 | surviving fraction (SNX-5422 [14]; 10 nM): 1.02 ± 0.018 | surviving fraction (SNX-5422 [14]; 50 nM): 0.65 ± 0.032 | surviving fraction (SNX-5422 [14]; 100 nM): 0.455 ± 0.03 | surviving fraction (SNX-5422 [14]; 500 nM): 0.0989 ± 0.0031 | surviving fraction (SNX-5422 [14]; 1000 nM): 0.0988 ± 0.0026 | surviving fraction ([15]; 0.5 nM): 0.95 ± 0.016 | surviving fraction ([15]; 1 nM): 0.949 ± 0.031 | surviving fraction ([15]; 5 nM): 0.964 ± 0.015 | surviving fraction ([15]; 10 nM): 0.953 ± 0.032 | surviving fraction ([15]; 50 nM): 0.908 ± 0.029 | surviving fraction ([15]; 100 nM): 0.896 ± 0.019 | surviving fraction ([15]; 500 nM): 0.544 ± 0.04 | surviving fraction ([15]; 1000 nM): 0.278 ± 0.01 | surviving fraction (SAPACITABINE [16]; 0.5 nM): 0.91 ± 0.016 | surviving fraction (SAPACITABINE [16]; 1 nM): 0.919 ± 0.022 | surviving fraction (SAPACITABINE [16]; 5 nM): 0.936 ± 0.031 | surviving fraction (SAPACITABINE [16]; 10 nM): 0.927 ± 0.034 | surviving fraction (SAPACITABINE [16]; 50 nM): 0.936 ± 0.043 | surviving fraction (SAPACITABINE [16]; 100 nM): 0.882 ± 0.053 | surviving fraction (SAPACITABINE [16]; 500 nM): 0.648 ± 0.03 | surviving fraction (SAPACITABINE [16]; 1000 nM): 0.516 ± 0.019
